PubChem BioAssay AID179 (DTP/NCI, 2004)
The source made the active and inactive calls.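 The calls were made as follows: active = compounds giving half or more protection of infected cells from virus-caused growth loss, again on retest; inactive = the rest.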

Tested on: CEM cells HIV-1 protection, formazan growth assay
Test: NCI AIDS Antiviral Assay
Conditions: for IC50: measured here: growth of uninfected CEM cells
In short: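 Human CEM cells, uninfected and HIV-1-infected, exposed to five drug concentrations; growth measured by soluble formazan assay and scored as percent protection from infection, with protecting compounds retested.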

Compound	EC50	IC50	outcome
N#C/C(=C\c1ccc([N+](=O)[O-])cc1)C(=O)c1ccccc1	> 45.7 µM	24.5 µM	–
CC(C)N1CSC(=S)N(Cc2ccccc2)C1	> 37.2 µM	32.4 µM	–
Nc1nc(Cl)nc2c1ncn2C1CCC(COP(=O)(O)OP(=O)(O)OP(=O)(O)O)O1 (stereo not given)	–	–	active
Cc1cc(C#N)c(Nc2c(C)cccc2[N+](=O)[O-])s1	> 200 µM	158 µM	–
Cc1cn([C@H]2C[C@@H](N3C(=O)c4ccccc4C3=O)[C@@H](CO[Si](C)(C)C(C)(C)C)O2)c(=O)[nH]c1=O	> 200 µM	151 µM	–
[O-]/N=[N+](/[O-])C1CCCCC1=[N+]1CCOCC1 (stereo not given)	> 200 µM	32.4 µM	–
COc1ccc(NC(=O)C(=O)C(CC2C(=O)NC(=S)NC2=O)C(=O)c2ccc3ccccc3c2)c([N+](=O)[O-])c1 (stereo not given)	> 123 µM	> 123 µM	–
O=C1Cc2c(-c3ccccc3)cc(-c3ccc4ccccc4c3)nc2-c2ccccc2N1	> 200 µM	51.3 µM	–
CCOC(=O)C1=NN(c2ccc(Cl)cc2)C2=CC(C)=NN(C)C(=S)N21	> 200 µM	> 200 µM	–
CC1(CCC2C=CCC2)CCCNC1=S (stereo not given)	38 µM	89.1 µM	–
Cc1cc(C)nc(NS(=O)(=O)c2ccc(Nc3c4ccc(Cl)cc4nc4ncccc34)cc2)n1	–	–	inactive
O=C(NC/C(Br)=C/Br)Nc1cnc2ccccc2c1	> 200 µM	81.3 µM	–
Clc1ccc(CSc2nnc(SCc3ccc(Cl)c(Cl)c3)c3[nH]cnc23)cc1Cl	> 200 µM	12.6 µM	–
C/C1=C/COC(=O)CC/C(C)=C/CC1	–	–	inactive
C[C@]12CC[C@H](O)CC1=CC[C@@H]1[C@@H]2CC[C@]2(C)C(=O)CC[C@@H]12	> 126 µM	83.2 µM	–
COC(=O)C1CC(C=[N+](C)C)=C(SC)N1C(=O)OCc1ccccc1 (stereo not given)	> 200 µM	191 µM	–
[Cu+2].[O-]/N=C/c1ccc(O)c(O)c1[O-].[O-]/N=C/c1ccc(O)c(O)c1[O-]	–	–	inactive
O=[N+]([O-])c1c(C=Nc2ccccc2)oc(-c2c(O)ccc3ccccc23)c1-c1c(O)ccc2ccccc12	> 200 µM	31.6 µM	–
CC(C)(C)c1ccc2c(c1)OCc1n[nH]c(n1)COc1cc(C(C)(C)C)ccc1OCCOCCO2	> 200 µM	7.24 µM	–
CC(C)(C)c1ccc(OCCOc2ccc(C(C)(C)C)cc2NC=O)c(NC=O)c1	> 200 µM	5.13 µM	–
COC(=O)C1=CCC(n2cc(C)c(=O)[nH]c2=O)CC1 (stereo not given)	> 257 µM	> 257 µM	–

Compound	EC50	IC50	outcome
CCN(CC)CCSSCCN(CC)CC	> 200 µM	38.9 µM	–
O=C(Nc1nc2ccc([N+](=O)[O-])cc2s1)C(=O)C(C(=O)c1ccccc1F)C1OC(=O)c2ccccc21 (stereo not given)	> 132 µM	18.2 µM	–
CC(C)(Oc1ccc2c(=O)cc(-c3ccccc3)oc2c1)C(=O)Nc1c(Cl)cccc1Cl	> 11.2 µM	> 11.2 µM	–
O=c1[nH]c2cc(O)ccc2c2cc3c(c(O)c12)OCO3	–	–	inactive
COC(=O)C(=O)C(C(=O)C(=O)Nc1ccccc1C(=O)OC)c1nc2ccc(C(=O)c3ccccc3)cc2[nH]c1=O (stereo not given)	> 89.1 µM	52.5 µM	–
C/C(=N\NC(N)=O)C(CN(C)C)C(c1ccccc1)c1c(O)c2ccccc2oc1=O (stereo not given)	> 91.2 µM	66.1 µM	–
CCOc1c(OC)cc(-c2nc3n(n2)C(=O)C(CC)S3)cc1OC (stereo not given)	> 200 µM	> 200 µM	–
CCOC(CN=c1nc(N(C)C)ss1)OCC	–	–	inactive
CCN(CC)c1c(C(=O)/C=C/c2ccc(F)cc2)c(-c2ccccc2)nn(C)c1=O	> 33.9 µM	7.24 µM	–
C=CCc1ccccc1CC1(OCC)OC(=O)c2ccccc21 (stereo not given)	> 43.7 µM	> 43.7 µM	–
O=C1C(c2ccc([N+](=O)[O-])cc2)=[N+]([O-])c2ccc([N+](=O)[O-])cc21	–	–	inactive
CC(C)(C)[Si](C)(C)OCC1OC(n2ccc(=O)[nH]c2=O)C(O[Si](C)(C)C(C)(C)C)C12OC2C(=O)NO (stereo not given)	> 20 µM	1.45 µM	–
C=C1C(=O)O[C@H]2[C@H]3O[C@@H](C[C@@H]12)[C@](C)(O)CC[C@@H]1O[C@@]1(C)CCC[C@H]3C	> 200 µM	8.13 µM	–
O=c1[nH]c2nc3ccccc3c(=O)n2/c1=C/c1ccccc1	> 200 µM	9.12 µM	–
Cc1cn(CC(=O)NCCCCO)c(=O)[nH]c1=O	> 200 µM	> 200 µM	–
CCCCCCCCCCCCCCCC(=O)OCC(COP(=O)(O)OCCNC(=O)CCSSc1ccccn1)OC(=O)CCCCCCCCCCCCCCC (stereo not given)	> 50.1 µM	37.2 µM	–
Cc1ccc([N+](=O)[O-])c2c(NCC(O)CO)ccnc12 (stereo not given)	> 33.9 µM	26.3 µM	–
CCC(C)[C@H]1C(=O)N=C(N)N1C(=O)OCc1ccccc1 (stereo not given in full)	195 µM	> 200 µM	–
CC(=O)OCC1OC(OC2C(COC(C)=O)OC(Sc3ccccc3C)C(OC(C)=O)C2OC(C)=O)C(OC(C)=O)C(OC(C)=O)C1OC(C)=O (stereo not given)	> 25.1 µM	> 25.1 µM	–
CCOC(=O)c1c(N)sc2c1CCCCC2	> 95.5 µM	> 95.5 µM	–
CCOC(=O)CCCN(c1sc(C)c(-c2ccccc2)c1C(=O)OCC)S(=O)(=O)c1ccc(C)cc1	> 200 µM	3.98 µM	–

Compound	EC50	IC50	outcome
C=C1CN(S(=O)(=O)c2ccc(C)cc2)CCCN(C2CCCC2)CCCN(S(=O)(=O)c2ccc(C)cc2)C1	> 200 µM	4.07 µM	–
Cn1c(-c2cccs2)cc(-c2ccsc2)c1-c1ccsc1	> 200 µM	> 200 µM	–
NNC(=O)C1C2c3ccccc3C(c3ccccc32)C1C(=O)NN (stereo not given)	> 200 µM	> 200 µM	–
COc1ccc(NC(=O)/C(=C/n2c(=S)[nH]c3cc(C)ccc32)C(C)=O)cc1	> 200 µM	> 200 µM	–
Cn1c(COc2ccc(/C=N\N3CCN(/N=C\c4ccc(OCc5c[n+]6ccccc6n5C)cc4)CC3)cc2)c[n+]2ccccc12	6.31 µM	7.59 µM	–
CCCCCSCCCCCCCC(=O)OCC1OC(n2cc(C)c(=O)[nH]c2=O)CC1N=[N+]=[N-] (stereo not given)	–	91.2 µM	active
CN1CCN(c2cc3nc(-c4ccc(Cl)cc4)[nH]c3cc2F)CC1	> 200 µM	11.5 µM	–
CC(C)CC1CC2C(=O)N(c3ccccc3)C(=O)C2c2[nH]c3ccccc3c21 (stereo not given)	–	–	inactive
CC(C)NCCCCCNc1cccc2cccnc12	> 200 µM	28.8 µM	–
C/C(Cc1[nH]nc2c1c(=O)oc1ccc3ccccc3c12)=N\N	> 200 µM	12.6 µM	–
O=C(O)c1ccccc1-c1c2ccc(=O)c(Br)c-2oc2c(Br)c(O)ccc12	> 200 µM	37.2 µM	–
CCOC(=O)C(=O)N=Nc1c(O)[nH]c2ccccc12	> 200 µM	> 200 µM	–
N#CC(C#N)N=Cc1ccncc1	> 200 µM	170 µM	–
O=C1N2Cc3c4ccc5c3CN3C(=O)N6Cc7c(ccc(c7CN1C6(c1ccccc1)C23c1ccccc1)OCCOCCNCCOCCO4)OCCOCCNCCOCCO5 (stereo not given)	> 6.03 µM	> 6.03 µM	–
CCOC(=O)C(NC(=O)CC)(Nc1ccccc1F)C(F)(F)F (stereo not given)	> 200 µM	> 200 µM	–
Oc1ccc2c(c1)OCC(O)(c1ccccc1O)C2 (stereo not given)	–	–	inactive
C=C1CN(S(=O)(=O)c2ccc(C)cc2)CCCN(CC(C)(C)C)CCCN(S(=O)(=O)c2ccc(C)cc2)C1	> 200 µM	10.5 µM	–
Cc1ccc(S(=O)(=O)OCCOCCOCCOCCOCCOS(=O)(=O)c2ccc(C)cc2)cc1	–	–	inactive
O=C1/C(=C/c2ccc(Cl)cc2)CSC/C1=C\c1ccc(Cl)cc1	> 200 µM	2.63 µM	–
CC(C)(C)OC(=O)C1C(=O)C(C(=O)OC(C)(C)C)C23CCCCCCCCCCC12C(C(=O)OC(C)(C)C)C(=O)C3C(=O)OC(C)(C)C (stereo not given)	> 18.6 µM	> 18.6 µM	–
N#C/C=C/c1cccc(Br)c1	> 47.9 µM	> 47.9 µM	–

Compound	EC50	IC50	outcome
S=C1NC(c2ccccc2)=NC(Cc2ccccc2)(c2ccccc2)N1c1ccccc1 (stereo not given)	–	–	inactive
CCOC(C)C(/C=N/NC(N)=S)=NNC(N)=S (stereo not given)	> 20 µM	1.86 µM	–
O=S(Cc1ccccc1)OOCCCCOS(=O)OCc1ccccc1 (stereo not given)	> 200 µM	4.17 µM	–
COC(=O)N1CCC(Sc2ccccc2)C2(CCOC(=O)c3ccccc3)CCC(O)C12 (stereo not given)	> 40.7 µM	> 40.7 µM	–
O=C1C=CC=CC2CC=C[C@@H](O)C12 (stereo not given in full)	> 251 µM	12 µM	–
CCOC(=O)C1=C(O)c2ccccc2C(=O)C1=O	> 525 µM	316 µM	–
COc1cc(NC=C2C(=O)OC(C)(C)OC2=O)c(OC)c(C)c1OC	> 200 µM	> 200 µM	–
COc1ccc2c3c([nH]c2c1[N+](=O)[O-])C(C)N(Cc1ccccc1)CC3 (stereo not given)	–	–	inactive
O=Cn1c2ccccc2c2ccccc21	> 200 µM	170 µM	–
COc1ccc(C2(C(OC)OC)NC(=O)N(C)C2=O)cc1 (stereo not given)	> 200 µM	> 200 µM	–
O=S(=O)(SSS(=O)(=O)c1ccccc1)c1ccccc1	> 75.9 µM	> 75.9 µM	–
O=C(CN1CCCCC1)c1ccc(CCc2ccc(C(=O)CN3CCCCC3)cc2)cc1	> 200 µM	95.5 µM	–
Nc1c(Cl)ncnc1Nc1ccc(Cc2ccc(Nc3ncnc(Cl)c3N)cc2)cc1	> 79.4 µM	> 79.4 µM	–
O=C(OCC1OC(c2nn[nH]n2)C(OC(=O)c2ccccc2)C1OC(=O)c1ccccc1)c1ccccc1 (stereo not given)	> 200 µM	70.8 µM	–
O=C1CN2Cc3c(sc4c3CCCC4)N=C2N1	> 200 µM	138 µM	–
CC1=NN(c2ccccc2)C(=O)C1N=Nc1ccc(S(=O)(=O)Nc2nnc(C)s2)cc1 (stereo not given)	–	–	inactive
O=S(=O)(O)C(I)S(=O)(=O)O	> 200 µM	> 200 µM	–
C/C=C(/C1CC2c3[nH]c4ccccc4c3CCN2C(=O)C1C(=O)OCC)[Si](C)(C)C (stereo not given)	> 8.91 µM	> 8.91 µM	–
Cc1ccc(S(=O)(=O)O/N=C(/CC/C(=N\OS(=O)(=O)c2ccc(C)cc2)c2ccccc2)c2ccccc2)cc1	> 437 µM	> 437 µM	–
CN1C(c2ccccc2)CC(=NOCc2ccccc2)CC1c1ccccc1 (stereo not given)	> 200 µM	8.71 µM	–
COc1cc2c[n+](C)c3c4cc5c(cc4ccc3c2cc1OC)OCO5	> 17.8 µM	0.437 µM	–
